Experimental data: US8691818B2, “Cyclic triazo and diazo sodium channel blockers” (University Of Greenwich, priority 2008, dated 2014)
Where a name gives a salt, the structure may show the parent alone.

What was measured:
sodium channel = assay: [14C]guanidine flux: veratrine-evoked uptake of [14C]guanidine into rat forebrain synaptosomes (primary sodium channel assay); type: biochemical; conditions: 30° for 2½ min
Outline: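 Synaptosomal fraction from male Wistar rat forebrain (without cerebellum/medulla), 20-25 mg wet weight/ml. Veratrine-evoked [14C]guanidine uptake at 30° for 2½ min across a compound concentration range; IC50 from concentration-effect curves, mean±sem.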

hERG = hERG (Homo sapiens, UniProt Q12809); assay: hERG: inhibition of binding of [3H]astemizole to HEK-293 cells expressing human recombinant hERG; conditions: for inhibition at 10 µM: human, probe [3H]astemizole
L-Type Calcium Channels = assay: L-type calcium channels: inhibition of binding of [3H]nitrendipine to rat cerebral cortex membranes
[1] = biological target: T1, DiHydroFolate Reductase (DHFR) (Rattus norvegicus, UniProt Q920D2); assay: Inhibition of binding of [3H]methotrexate to rat liver homogenate supernatant; conditions: 125 μM; read-out: [3H]mtx binding (% inhibition @ 125 μM)
T1 construct: from tissue; host or cells: rat liver homogenate supernatant
T1 sequence (Q920D2 1-187): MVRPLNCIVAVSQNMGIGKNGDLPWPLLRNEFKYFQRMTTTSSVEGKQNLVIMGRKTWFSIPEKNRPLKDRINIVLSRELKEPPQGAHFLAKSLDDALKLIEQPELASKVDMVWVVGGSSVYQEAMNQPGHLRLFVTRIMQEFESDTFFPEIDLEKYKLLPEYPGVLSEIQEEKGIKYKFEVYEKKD
Outline: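 Displacement of [3H]methotrexate binding to rat liver homogenate supernatant, prepared at 4 °C in pH 6.0 phosphate buffer with 15 mM dithiothreitol. Values are mean±sem over the number of experiments shown.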

Sodium Channel, Site 2 = type: binding, Wistar Rat; conditions: for IC50: read-out: [3H]BTX-B binding Extrapolated IC50

Sequence of hERG (Q12809 whole entry): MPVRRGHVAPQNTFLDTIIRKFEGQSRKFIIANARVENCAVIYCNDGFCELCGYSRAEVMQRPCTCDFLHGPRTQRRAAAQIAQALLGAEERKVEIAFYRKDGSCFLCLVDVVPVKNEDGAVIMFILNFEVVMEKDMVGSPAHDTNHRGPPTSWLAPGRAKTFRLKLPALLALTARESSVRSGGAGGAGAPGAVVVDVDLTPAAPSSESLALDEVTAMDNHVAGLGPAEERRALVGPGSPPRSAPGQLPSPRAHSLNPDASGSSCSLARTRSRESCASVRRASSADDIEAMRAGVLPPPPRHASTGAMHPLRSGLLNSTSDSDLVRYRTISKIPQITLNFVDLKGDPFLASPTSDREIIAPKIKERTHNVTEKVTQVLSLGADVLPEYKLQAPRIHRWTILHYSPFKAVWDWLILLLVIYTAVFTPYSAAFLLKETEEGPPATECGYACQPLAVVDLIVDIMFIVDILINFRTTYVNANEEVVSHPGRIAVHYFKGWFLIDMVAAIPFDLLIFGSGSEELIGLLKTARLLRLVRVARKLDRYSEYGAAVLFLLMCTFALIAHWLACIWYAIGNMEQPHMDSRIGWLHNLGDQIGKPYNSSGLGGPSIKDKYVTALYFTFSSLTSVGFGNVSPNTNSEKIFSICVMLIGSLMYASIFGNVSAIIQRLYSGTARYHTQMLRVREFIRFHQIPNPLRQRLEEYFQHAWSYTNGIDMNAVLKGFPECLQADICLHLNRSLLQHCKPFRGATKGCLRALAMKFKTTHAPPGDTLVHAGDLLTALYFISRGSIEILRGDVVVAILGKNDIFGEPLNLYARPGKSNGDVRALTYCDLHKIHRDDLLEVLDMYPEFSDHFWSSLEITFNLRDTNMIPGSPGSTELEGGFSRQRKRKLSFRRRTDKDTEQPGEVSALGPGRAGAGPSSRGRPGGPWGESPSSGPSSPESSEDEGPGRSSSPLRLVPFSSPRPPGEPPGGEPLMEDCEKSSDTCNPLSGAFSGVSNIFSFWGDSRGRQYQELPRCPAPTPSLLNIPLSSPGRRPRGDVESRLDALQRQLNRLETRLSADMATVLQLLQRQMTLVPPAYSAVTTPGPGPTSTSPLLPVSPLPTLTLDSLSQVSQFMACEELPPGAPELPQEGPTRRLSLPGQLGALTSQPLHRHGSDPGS

Compound | IC50 (sodium channel) | IC50 (hERG) | inhibition at 10 µM (hERG) | L-type Ca2+ % inhibition @ 10 μM (L-Type Calcium Channels; 10 μM, [3H]nitrendipine binding) | IC50 (L-Type Calcium Channels; read-out: L-type Ca2+ IC50 (μM) (extrapolated from 10 μM inh'n), extrapolated assuming binding slope 1.0) | melting point | inhibition at 125 µM [1] | [3H]BTX-B binding % inhibition (@ 10 μM) (Sodium Channel, Site 2) | IC50 (Sodium Channel, Site 2)
CCc1nc(N)nc(N)c1-c1ccc(Cl)cc1 [CEN-48, 2,4-Diamino-5-(4-chlorophenyl)-6-ethyl-pyrimidine, reference compound] | 5.8 µM | 46 µM | 18% | −1% | > 190 µM | – | – | – | –
CCn1nc(-c2cccc3ccccc23)c(N)nc1=N [CEN-77, 5(3)-Amino-6-(1-naphthyl)-2,3(2,5)-dihydro-3(5)-imino-2-ethyl-1,2,4-triazine] | 14.5 µM | 18 µM | 36% | – | – | 191 to 193 °C | -1% | – | –
Cn1nc(-c2cccc3ccccc23)c(N)nc1=N [CEN-78, 5(3)-Amino-6-(1-naphthyl)-2,3(2,5)-dihydro-3(5)-imino-2-methyl-1,2,4-triazine] | 102 µM | 32 µM | 24% | – | – | 248 to 250 °C | 9% | – | –
Cn1nc(-c2cc(Cl)sc2Cl)c(N)nc1=N [CEN-80, 5(3)-Amino-6-[3-(2,5-dichlorothienyl)]-2,3(2,5)-dihydro-3(5)-imino-2-methyl-1,2,4-triazine] | 123 µM | 61 µM | 14% | – | – | 286 to 288 °C | -1% | – | –
Cn1nc(-c2ccc3c(c2)OC(F)(F)O3)c(N)nc1=N [CEN-81, 5(3)-Amino-6-[5-(2,2-difluorobenzodioxolo)]-dihydro-3(5)-imino-2-methyl-1,2,4-triazine] | 251 µM | 49 µM | 17% | – | – | 297 to 298 °C | -2% | – | –
Nc1nnc(-c2ccc(Oc3ccccc3)cc2)c(N)n1 [CEN-93, 3,5-Diamino-6-(4-phenoxphenyl)-1,2,4-triazine] | 63.1 µM | 19 µM | 35% | – | – | 266 to 267 °C | 4% | – | –
Cn1nc(-c2ccccc2Oc2ccccc2)c(N)nc1=N [CEN-105, 5(3)-Amino-6-(2-phenoxyphenyl)-2,3(2,5)-dihydro-3(5)-imino-2-methyl-1,2,4-triazine] | 100 µM | 19 µM | 35% | – | – | 164 to 166 °C | 86% | – | –
Cc1ccc(-c2nnc(N)nc2-c2ccc(C)cc2)cc1 [CEN-126, 3-Amino-5,6-bis(4-methylphenyl)-1,2,4-triazine] | 58.9 µM | 3 µM | 79% | – | – | 134 to 136 °C | -12% | – | –
COc1ccc(-c2nnc(N)nc2-c2ccc(OC)cc2)cc1 [CEN-127, 3-Amino-5,6-bis(4-methoxylphenyl)-1,2,4-triazine] | 85.1 µM | > 200 µM | 2% | – | – | 179 to 181 °C | -24% | – | –
Nc1nnc(-c2cccc3c2-c2ccccc2C3)c(N)n1 [CEN-129] | 190 µM | 133 µM | 7% | – | – | 240 to 242 °C | -3% | – | –
Cn1nc(-c2cccc(C(F)(F)F)c2Cl)c(N)nc1=N [CEN-177, 5(3)-Amino-6-(2-chloro-3-trifluoromethyphenyl)-2,3(2,5)-dihydro-3(5)-imino-2-methyl-1,2,4-triazine] | 14 µM | 35 µM | 22% | – | – | 205 to 207 °C | 16% | – | –
Nc1nnc(C2c3ccccc3Oc3ccccc32)c(N)n1 [CEN-182, 3,5-Diamino-6-(9-xanthyl)-1,2,4-triazine] | 214 µM | 90 µM | 10% | – | – | 159 to 161 °C | 6% | – | –
Cc1ccc(S(=O)(=O)O)cc1.Nc1nnc(-c2cc(C(F)(F)F)ccc2C(F)(F)F)c(N)n1 [CEN-198, 3,5-Diamino-6-[2,5-bis(trifluoromethyl)phenyl]-1,2,4-triazine tosylate] | – | – | – | – | – | – | – | 23% | 34 µM
Nc1nnc(-c2cccc(C(F)(F)F)c2Cl)c(N)n1 [CEN-199, 3,5-Diamino-6-(2-chloro-3-trifluoromethylphenyl)-1,2,4-triazine] | – | – | – | – | – | – | – | 29% | 25 µM
Nc1nnc(-c2cc(Cl)ccc2C(F)(F)F)c(N)n1 [CEN-200, 3,5-Diamino-6-(5-chloro-2-trifluoromethylphenyl)-1,2,4-triazine] | – | – | – | – | – | 242 to 243 °C | – | 14% | 61 µM
CC(C)C(c1ccccc1)c1nnc(N)nc1N (stereo not shown) [CEN-201, 3,5-Diamino-6-(1-isopropyl-1-phenylmethy)-1,2,4-triazine] | – | – | – | – | – | – | – | 3% | > 200 µM
Cn1nc(-c2cc(C(F)(F)F)cc(Cl)c2F)c(N)nc1=N [CEN-202, 5(3)-Amino-6-(3-chloro-2-fluoro-5-trifluoromethyphenyl)-2,3(2,5)-dihydro-3(5)-imino-2-methyl-1,2,4-triazine mesylate] | – | – | – | – | – | – | – | 90% | 1 µM
CCn1nc(-c2cc(C(F)(F)F)cc(Cl)c2F)c(N)nc1=N [CEN-203, 5(3)-Amino-6-(3-chloro-2-fluoro-5-trifluoromethyphenyl)-2,3(2,5)-dihydro-3(5)-imino-2-ethyl-1,2,4-triazine mesylate] | – | – | – | – | – | – | – | 102% | < 0.5 µM
Cn1nc(-c2cc(F)c(F)cc2Cl)c(N)nc1=N [CEN-204, 5(3)-Amino-6-(2-chloro-4,5-difluoro-5-phenyl)-2,3(2,5)-dihydro-3(5)-imino-2-methyl-1,2,4-triazine mesylate] | – | – | – | – | – | – | – | 52% | 9 µM
CCn1nc(-c2cc(F)c(F)cc2Cl)c(N)nc1=N.CS(=O)(=O)O [CEN-205, 5(3)-Amino-6-(2-chloro-4,5-difluoro-5-phenyl)-2,3(2,5)-dihydro-3(5)-imino-2-ethyl-1,2,4-triazine mesylate] | – | – | – | – | – | – | – | 79% | 3 µM
Nc1nnc(-c2ccc(F)c(F)c2F)c(N)n1 [CEN-206, 3,5-Diamino-6-(2,3,4-trifluorophenyl)-1,2,4-triazine] | – | – | – | – | – | 242 to 243 °C | – | 24% | 32 µM
Nc1nnc(-c2cc(F)c(F)cc2Cl)c(N)n1 [CEN-207, 3,5-Diamino-6-(2-chloro-4,5-difluorophenyl)-1,2,4-triazine] | – | – | – | – | – | 240 to 242 °C | – | 30% | 23 µM
Nc1nnc(-c2cc(F)c(F)c(F)c2F)c(N)n1 [CEN-208, 3,5-Diamino-6-(2,3,4,5-tetrafluorophenyl)-1,2,4-triazine] | – | – | – | – | – | 233 to 235 °C | – | 31% | 22 µM
Cc1ccc(S(=O)(=O)O)cc1.Nc1nnc(-c2c(C(F)(F)F)ccc(Cl)c2Cl)c(N)n1 [CEN-209, 3,5-Diamino-6-(2,3-dichloro-6-trifluoromethylphenyl)-1,2,4-triazine tosylate] | – | – | – | – | – | – | – | 36% | 18 µM
N=c1nc(N)c(-c2cc(C(F)(F)F)cc(Cl)c2F)nn1CC(F)(F)C(F)F.O=S(=O)(O)C(F)(F)F [CEN-210, 5(3)-Amino-6-(3-chloro-2-fluoro-5-trifluoromethyphenyl)-2,3(2,5)-dihydro-3(5)-imino-2-(2,2,3,3-tetrafluoropropyl)-1,2,4-triazine trifluoromethanesulphonate] | – | – | – | – | – | – | – | 43% | 13 µM
N=c1nc(N)c(-c2cc(C(F)(F)F)cc(Cl)c2F)nn1CC(F)(F)C(F)(F)F.O=S(=O)(O)C(F)(F)F [CEN-211, 5(3)-Amino-6-(3-chloro-2-fluoro-5-trifluoromethyphenyl)-2,3(2,5)-dihydro-3(5)-imino-2-(2,2,3,3,3-pentafluoropropyl)-1,2,4-triazine trifluoromethanesulphonate] | – | – | – | – | – | – | – | 106% | < 0.5 µM
Cc1ccc(S(=O)(=O)O)cc1.Nc1nnc(-c2c(F)c(F)c(F)c(F)c2F)c(N)n1 [CEN-212, 3,5-Diamino-6-(2,3,4,5,6-pentafluorophenyl)-1,2,4-triazine tosylate] | – | – | – | – | – | – | – | 0% | > 200 µM
Nc1nnc(C(c2ccc(Cl)cc2)c2ccc(Cl)cc2)c(N)n1 [CEN-213, 3,5-Diamino-6-[1,1 bis-(4-chlorophenyl)methyl]-1,2,4-triazine] | – | – | – | – | – | – | – | −2% | > 200 µM
Cc1ccc(S(=O)(=O)O)cc1.Nc1nnc(-c2c(Cl)ccc(Cl)c2Cl)c(N)n1 [CEN-214, 3,5-Diamino-6-(2,3,6-trichlorophenyl)-1,2,4-triazine tosylate] | – | – | – | – | – | – | – | 10% | 90 µM
CC(C)(Oc1ccc(Cl)cc1)c1nnc(N)nc1N [CEN-215, 3,5-Diamino-6-{1-(4-chlorophenoxy)-1-methyl}ethyl-1,2,4-triazine tosylate] | – | – | – | – | – | – | – | 22% | 35 µM
